In patent US12435077B2, “Oxazolidinone compound and methods of use thereof as an antibacterial agent” (priority 2020, dated 2025):

How the values were obtained:
[1] = tested on: Mycobacterium tuberculosis (Mtb-GFP; H37Rv pMSP12::GFP); format: cell-based; conditions: pH 6.8, 7-day growth, 95% growth inhibition; for Mtb Cho MITC95: cholesterol as carbon source; for Mtb Glu MITC95: glucose as carbon source
in vivo [2] = conditions: male, rat, iv
Description: Plasma pharmacokinetic parameters for clearance, volume of distribution, half-life and oral bioavailability were determined in rats from oral administration and IV administration studies. 4 male rats, typically weighing 225-260 gram, were fasted overnight prior to dosing. Compounds were prepared for oral and IV dosing by addition to a vehicle, depending on the dose used. For a typical preparation, 1 mg per mL (IV) or 1.5 mg per mL (oral) of test compound was added to vehicle comprised of 20% dimethyl sulfoxide (DMSO), 60% polyethylene glycol 400 (PEG400) and 20% water. Intravenous (IV) formulation was administered to two rats via pre-cannulated jugular vein, and oral dosing was administered to two rats via oral gavage. Blood was collected by pre-cannulated artery, typically at predose, 2, 8, 15, 30 min, 1, 2, 4, 6, and 8 hours post-dose for IV, and at predose, 15, 30 mins, 1, 2, 4, 6, 8 hours for oral dosing. Samples were collected in K2EDTA tubes, stored on ice, and centrifuged. Plasma was transferred to a micro titer plate and stored at −70° C. until analysis. Plasma samples were extracted using protein precipitation and analyzed by liquid chromatography separation followed by mass spec detection (LC-MS/MS), using a standard curve for each compound. Plasma pharmacokinetic parameters were calculated for IV and oral dosing data by non-compartmental methods. Oral bioavailability was determined as the ratio of the dose-normalized plasma area under the curve (AUC) following oral dosing vs. IV dosing. Plasma pharmacokinetic parameters for clearance, volume of distribution, half-life and mean residence time (MRT) were determined in rats from IV cassette administration studies. Two male rats typically weighing 225-260 gram, were fasted overnight prior to dosing. Compounds were prepared for IV dosing by addition to a vehicle, depending on the dose used. For a typical preparation, 1 mg per mL (IV) of up to 5 test compounds were added to vehicle comprised of 20% dimethyl sulfoxide (DMSO), 60% polyethylene glycol 400 (PEG400) and 20% water. IV formulation was administered to two rats via pre-cannulated jugular vein. Blood was collected by pre-cannulated artery, typically at predose, 2, 8, 15, 30 mins, 1, 2, 4, 6, and 8 hours postdose. Samples were collected in K2EDTA tubes, stored on ice, and centrifuged. Plasma was transferred to a micro titer plate and stored at −70° C. until analysis. Plasma samples were extracted using protein precipitation and analyzed by liquid chromatography separation followed by mass spec detection (LC-MS/MS), using a standard curve for each compound. Plasma pharmacokinetic parameters were calculated by non-compartmental methods.

in vivo [3] = conditions: male, dog, iv
Description: Plasma pharmacokinetic parameters for clearance, volume of distribution, half-life, mean residence time (MRT) and oral bioavailability were determined in dogs from oral administration and IV administration studies. Four male dogs, typically weighing 8-12 kilograms, were fasted overnight prior to dosing. Compounds were prepared for oral and IV dosing by addition to a vehicle, depending on the dose used. For a typical preparation, 1 mg per mL (IV) or 1.5 mg per mL (oral) of test compound was added to vehicle comprised of 20% dimethyl sulfoxide (DMSO), 60% polyethylene glycol 400 (PEG400) and 20% water. IV formulation was administered to two dogs via the saphenous or cephalic vein, and oral dosing was administered to two dogs via oral gavage. Blood was collected by the cephalic or jugular vein, typically at predose, 2, 8, 15, 30 mins, 1, 2, 4, 6, 8 and 24 hours post-dose for IV, and at predose, 15, 30 mins, 1, 2, 4, 6, 8, and 24 hours for oral dosing. Samples were collected in K2EDTA tubes, stored on ice, and centrifuged. Plasma was transferred to a micro titer plate and stored at −70° C. until analysis. Plasma samples were extracted using protein precipitation and analyzed by liquid chromatography separation followed by mass spec detection (LC-MS/MS), using a standard curve for each compound. Plasma pharmacokinetic parameters were calculated for IV and oral dosing data by non-compartmental methods. Oral bioavailability was determined as the ratio of the dose-normalized plasma area under the curve (AUC) following oral dosing verses IV dosing. Plasma pharmacokinetic parameters for clearance, volume of distribution, half-life, and mean residence time (MRT) were determined in dogs from IV cassette administration studies. Two male dogs, typically weighing 8-12 kilograms, were fasted overnight prior to dosing. Compounds were prepared for IV dosing by addition to a vehicle, depending on the dose used. For a typical preparation, 1 mg per mL (IV) of up to 5 test compounds were added to vehicle comprised of 20% dimethyl sulfoxide (DMSO), 60% polyethylene glycol 400 (PEG400) and 20% water. IV formulation was administered to two dogs via the saphenous or cephalic vein. Blood was collected by the cephalic or jugular vein, typically at predose, 2, 8, 15, 30 mins, 1, 2, 4, 6, 8 and 24 hours post-dose. Samples were collected in K2EDTA tubes, stored on ice, and centrifuged. Plasma was transferred to a micro titer plate and stored at −70° C. until analysis. Plasma samples were extracted using protein precipitation and analyzed by liquid chromatography separation followed by mass spec detection (LC-MS/MS), using a standard curve for each compound. Plasma pharmacokinetic parameters were calculated by non-compartmental methods.

[4] = Plasma protein binding, rat plasma; format: in vitro ADME
Description: (§1) Binding of compounds to plasma proteins from rat and dog was determined by equilibrium dialysis of the appropriate species plasma at 37° C. for 4 hours in the presence of 2.5 uM of test compound. Plasma samples were precipitated and separated by centrifugation. The supernatant was analyzed by mass spec detection (LC-MS/MS), using a standard curve for each compound. The fraction of unbound compound was calculated per the following: • Fraction Unbound (fu)=Peak Area Ratiobuffer/Peak Area Ratioplasma • where • Peak Area Ratiobuffer=Peak area ratio of analyte/internal standard in buffer • Peak Area Ratioplasma=Peak area ratio of analyte/internal standard in plasma

[5] = Plasma protein binding, dog plasma; format: in vitro ADME
Description: as §1

[6] = tested on: mitochondrial protein synthesis in HepG2 cells; experiment: Mitochondrial protein synthesis assay; format: cell-based; conditions: Homo sapiens, 96 h, 4 days, COX-I vs SDH-A / Janus Green, read-out: MPS IC50
Description: Inhibition of mitochondrial protein synthesis was assessed in HepG2 cells by comparing the levels of two subunits of oxidative phosphorylation enzyme complexes, subunit I of Complex IV (COX-I) and the 70 kDa subunit of Complex II (SDH-A). COX-I is mitochondrial DNA encoded and SDH-A is nuclear DNA encoded.

[7] = comparison compounds from WO2017/070024, read-out: Rat fu
[8] = comparison compounds from WO2017/070024, read-out: Dog fu

Structure (SMILES)	Mtb Cho MITC95 [1]	Mtb Glu MITC95 [1]	MRT (in vivo [2])	Vd (in vivo [2])	clearance (in vivo [2])	MRT (in vivo [3])	clearance (in vivo [3])	fraction unbound at 4 h, 2.5 uM ([4]; equilibrium dialysis, 37° C., 4 hours, 2.5 uM, read-out: Rat fu)	fraction unbound at 4 h, 2.5 uM ([5]; equilibrium dialysis, 37° C., 4 hours, 2.5 uM, read-out: Dog fu)	Vd (in vivo [3])	fraction unbound at 4 h, 2.5 uM [4, 7]	fraction unbound at 4 h, 2.5 uM [5, 8]	IC50 [6]
COC(=O)NC[C@H]1CN(c2cc(F)c(N3CCS(=O)(=O)CC3)c(F)c2)C(=O)O1 [Example 1, methyl ({(5S)-3-[4-(1,1-dioxo-1λ^6-thiomorpholin-4-yl)-3,5-difluorophenyl]-2-oxo-1,3-oxazolidin-5-yl}methyl)carbamate]	1.16 µM	0.71 µM	1.7 h	0.9 L/kg	8.5 mL/min/kg	12.6 h	1.9 mL/min/kg	0.42	0.69	–	–	–	–
NC[C@H]1CN(c2cnc(N3CCS(=O)(=O)CC3)c(F)c2)C(=O)O1 [Example 48 from WO2017/070024]	–	–	0.5 h	2.5 L/kg	85 mL/min/kg	1.3 h	18 mL/min/kg	–	–	1.5 L/kg	0.83	0.87	–
NC[C@H]1CN(c2cc(F)c(N3CCOCC3)c(F)c2)C(=O)O1 [Example 59 from WO2017/070024]	–	–	0.8 h	2 L/kg	43 mL/min/kg	1.3 h	53 mL/min/kg	–	–	4.2 L/kg	0.57	0.81	–
CC(=O)NC[C@H]1CN(c2ccc(N3CCOCC3)c(F)c2)C(=O)O1 [linezolid]	3.14 µM	4.58 µM	–	–	–	–	–	–	–	–	–	–	8 µM
